Values after ≈ are worked out from the molar mass of the structure shown. Values joined by “and” are separate entries in the source; they are usually repeats but may differ in a detail not shown here. Equal values may be shown once. “Also recorded” adds a separate entry of the source.
Columns and labels:
Assay type in all cases: physicochemical
[1] = Variable-temperature PXRD / thermal behaviour of acetate pattern 1; details: after VT PXRD
Method: For variable temperature (VT-XRPD) experiments samples were mounted on an Anton Paar DHS 900 hot stage at ambient conditions. The sample was then heated to the appropriate temperature at 20° C./min and subsequently held isothermally for 1 minute before data collection. Samples were prepared and analysed on a silicon wafer mounted to the hot stage using a heat-conducting paste.
In order to investigate this further a VT PXRD experiment on this material was carried out. On heating, the original white powder converts first to a translucent solid by 130° C., then to a translucent white solid by 170° C. This conversion is accompanied by loss of the original diffraction pattern is lost and appearance of a new diffraction pattern. […] The material is stable at RT.

[2] = Storage stability at 40° C./75% RH and 25° C./97% RH (PXRD, HPLC, NMR)
Method: Studies were performed on various cethromycin forms in order to determine stability for storage.

[3] = Kinetic solubility (2 hours) in SGF media
Method: Sufficient sample was suspended in 0.25 ml media for a maximum anticipated concentration of ca. 40 mg/ml of the free form of the compound. The resulting suspensions were then shaken at 25° C./750 rpm for 2 hours. After equilibration, the appearance was noted, and the pH of the saturated solution was measured. Samples were then filtered through a glass ‘C’ fibre filter (particle retention 1.2 μm). All the samples were diluted 100 times with SGF media. […] Different volumes of the standard and diluted sample solutions were injected.

[4] = Preliminary solubility investigation of amorphous cethromycin in solvents; details: for Solubility: 50 °C, organic solvent or mixture, thermodynamic from solid, heated to 50° C.
Method: Amorphous cethromycin (25 mg) in HPLC vials was treated with increasing volumes of solvent until the material fully dissolved or until a maximum of 60 vol (1.5 ml) had been added. After each addition of solvent, the vials were stirred and gently heated to 50° C. before the addition of a new aliquot of solvent. […] All solids were then isolated by filtration and dried under suction. Antisolvent (n-heptane, 10 or 20 vol) was added to any solutions and the resulting gums were matured in a chamber switching from 25° C. to 50° C. every four hours. All isolated solids were analysed by PXRD.

[5] = Thermodynamic solubility (24 hours) in DI water
Method: (§1) Sufficient sample was suspended in 0.25 ml media for a maximum anticipated concentration of ca. 40 mg/ml of the free form of the compound. The resulting suspensions were then shaken at 25° C./750 rpm for 24 hours. The pH of samples suspended in PBS pH 7.4 were checked and adjusted if necessary (>0.05 change in pH) after 2 hours. After equilibration, the appearance was noted and the pH of the saturated solution was measured. Samples were then filtered through a glass ‘C’ fibre filter (Particle retention 1.2 μm). Samples suspended in PBS pH 7.4 buffer was diluted 10 times with PBS buffer and samples suspended in DI water diluted 100 times with DI water.

[6] = Solubility assessment of amorphous cethromycin chloride in solvents at 25° C.
[7] = PXRD of residues undissolved after solubility analysis
Method: PXRD analysis was performed on residues that remained undissolved after the solubility analysis to check for changes in solid form.

[8] = Thermodynamic solubility (24 hours) in PBS media; details: PBS pH 7.4, 24 hr (Table 33)
Method: as §1

SMILES: CC[C@H]1OC(=O)[C@H](C)C(=O)[C@H](C)[C@@H](O[C@@H]2O[C@H](C)C[C@H](N(C)C)[C@H]2O)[C@](C)(OCC=Cc2cnc3ccccc3c2)C[C@@H](C)C(=O)[C@H](C)[C@H]2NC(=O)O[C@@]21C [freebase pattern 1]
- Stability of the form at RT [1]: stable at RT
- HPLC Purity after storage at 40° C./75% RH for 7 days ([2]; 7 days): 96.6%
- PXRD after storage at 40° C./75% RH for 7 days ([2]; 7 days, made from acetate pattern 1 by heating to 150° C.): freebase pattern 1

SMILES: CC[C@H]1OC(=O)[C@H](C)C(=O)[C@H](C)[C@@H](O[C@@H]2O[C@H](C)C[C@H](N(C)C)[C@H]2O)[C@](C)(OC/C=C/c2cnc3ccccc3c2)C[C@@H](C)C(=O)[C@H](C)[C@H]2NC(=O)O[C@@]21C [Cethromycin, (3aS,4R,7R,9R,10R,11R,13R,15R,15aR)-10-(((2S,3R,4S,6R)-4-(dimethylamino)-3-hydroxy-6-methyltetrahydro-2H-pyran-2-yl)oxy)-4-ethyl-3a,7,9,11,13,15-hexamethyl-11-(((E)-3-(quinolin-3-yl)allyl)oxy)octahydro-2H-[1]oxa-cyclotetradecino[4,3-d]oxazole-2,6,8,14(1H,7H,9H)-tetraone]
- solubility kinetic at 2 h ([3]; simulated gastric fluid, thermodynamic from solid, 2 hours, 25° C.): 25 mg/mL (≈ 32.6 mM)
- Solubility ([4]; 2-propanol, 10 vol): > 100 mg/mL
- Solubility in solvents ([4]; 10 vol of THF:H2O (9:1), 2-propanol, EtOH, EtOAc, acetone, MeCN, THF, TBME and DCM): readily soluble
- Solubility ([4]; DCM, 10 vol): > 100 mg/mL
- Solubility ([4]; EtOAc, 10 vol): > 100 mg/mL
- Solubility ([4]; EtOH, 10 vol): > 100 mg/mL
- Solubility ([4]; Hept (heptane), Hept, 10 vol): < 100 mg/mL
- Solubility ([4]; Hept (heptane), Hept, 20 vol): < 50 mg/mL
- Solubility ([4]; Hept (heptane), Hept, 30 vol): < 33.3 mg/mL
- Solubility ([4]; Hept (heptane), Hept, 40 vol): < 25 mg/mL
- Solubility ([4]; Hept (heptane), Hept, 50 vol): < 20 mg/mL
- Solubility ([4]; Hept (heptane), Hept, 60 vol): < 16.7 mg/mL
- Solubility ([4]; MeCN, 10 vol): > 100 mg/mL
- Solubility ([4]; TBME, 10 vol): > 100 mg/mL
- Solubility ([4]; THF, 10 vol): > 100 mg/mL
- Solubility ([4]; THF:H2O (9:1), THF:H2O (9:1), 10 vol): > 100 mg/mL
- Solubility ([4]; acetone, 10 vol): > 100 mg/mL
- pH of the saturated solution, thermodynamic solubility in DI water ([5]; DI water, 24 hours): 7.0
- solubility thermodynamic at 24 h ([5]; thermodynamic from solid, DI water, 24 hours, 25° C.): 0.4 mg/mL (≈ 0.522 mM)

SMILES: CCC1OC(=O)C(C)C(=O)C(C)C(OC2OC(C)CC(N(C)C)C2O)C(C)(OCC=Cc2cnc3ccccc3c2)CC(C)C(=O)C(C)C2NC(=O)OC12C.Cl (stereo not drawn) [amorphous cethromycin chloride]
- Storage at 40° C./75% RH for 9 days (PXRD) ([2]; 9 days, Batch D): did not crystallise; also recorded: amorphous
- Solubility in selected solvents ([6]; 18 solvents): soluble in 10 of the 18 solvents
- Solubility ([6]; Acetone, 1 vol): ✓ (dissolved)
- Solubility ([6]; EtOAc, 1 vol): x (not dissolved/too dry to slurry)
- Solubility ([6]; EtOAc, 2 vol): x (not dissolved/too dry to slurry)
- Solubility ([6]; EtOAc, 3 vol): x (not dissolved/too dry to slurry)
- Solubility ([6]; EtOAc, 4 vol): x (not dissolved/too dry to slurry)
- Solubility ([6]; EtOAc, 5 vol): ✓o (slurry)
- Solubility ([6]; EtOH/H2O (10%), 1 vol): ✓ (dissolved)
- Solubility ([6]; Ethanol, 1 vol): ✓ (dissolved)
- Solubility ([6]; Hept, 1 vol): x (not dissolved/too dry to slurry)
- Solubility ([6]; Hept, 2 vol): x (not dissolved/too dry to slurry)
- Solubility ([6]; Hept, 3 vol): x (not dissolved/too dry to slurry)
- Solubility ([6]; Hept, 4 vol): x (not dissolved/too dry to slurry)
- Solubility ([6]; Hept, 5 vol): x (not dissolved/too dry to slurry)
- Solubility ([6]; Hept, 10 vol): ✓o (slurry)
- Solubility ([6]; MEK, 1 vol): x (not dissolved/too dry to slurry)
- Solubility ([6]; MEK, 2 vol): x (not dissolved/too dry to slurry)
- Solubility ([6]; MEK, 3 vol): x (not dissolved/too dry to slurry)
- Solubility ([6]; MEK, 4 vol): x (not dissolved/too dry to slurry)
- Solubility ([6]; MEK, 5 vol): ✓o (slurry)
- Solubility ([6]; MIBK, 1 vol): x (not dissolved/too dry to slurry)
- Solubility ([6]; MIBK, 2 vol): x (not dissolved/too dry to slurry)
- Solubility ([6]; MIBK, 3 vol): x (not dissolved/too dry to slurry)
- Solubility ([6]; MIBK, 4 vol): x (not dissolved/too dry to slurry)
- Solubility ([6]; MIBK, 5 vol): ✓o (slurry)
- Solubility ([6]; MTBE, 1 vol): x (not dissolved/too dry to slurry)
- Solubility ([6]; MTBE, 2 vol): x (not dissolved/too dry to slurry)
- Solubility ([6]; MTBE, 3 vol): x (not dissolved/too dry to slurry)
- Solubility ([6]; MTBE, 4 vol): x (not dissolved/too dry to slurry)
- Solubility ([6]; MTBE, 10 vol): ✓o (slurry)
- Solubility ([6]; MeCN, 1 vol): ✓ (dissolved)
- Solubility ([6]; MeOH, 1 vol): ✓ (dissolved)
- Solubility ([6]; THF, 1 vol): x (not dissolved/too dry to slurry)
- Solubility ([6]; THF, 2 vol): x (not dissolved/too dry to slurry)
- Solubility ([6]; THF, 3 vol): x (not dissolved/too dry to slurry)
- Solubility ([6]; THF, 4 vol): x (not dissolved/too dry to slurry)
- Solubility ([6]; THF, 5 vol): ✓ (dissolved)
- Solubility ([6]; THF/H2O (10%), 1 vol): ✓ (dissolved)
- Solubility ([6]; Toluene, 1 vol): x (not dissolved/too dry to slurry)
- Solubility ([6]; Toluene, 2 vol): x (not dissolved/too dry to slurry)
- Solubility ([6]; Toluene, 3 vol): x (not dissolved/too dry to slurry)
- Solubility ([6]; Toluene, 4 vol): x (not dissolved/too dry to slurry)
- Solubility ([6]; Toluene, 5 vol): x (not dissolved/too dry to slurry)
- Solubility ([6]; Toluene, 10 vol): ✓o (slurry)
- Solubility ([6]; cHex, 1 vol): x (not dissolved/too dry to slurry)
- Solubility ([6]; cHex, 2 vol): x (not dissolved/too dry to slurry)
- Solubility ([6]; cHex, 3 vol): x (not dissolved/too dry to slurry)
- Solubility ([6]; cHex, 4 vol): x (not dissolved/too dry to slurry)
- Solubility ([6]; cHex, 5 vol): x (not dissolved/too dry to slurry)
- Solubility ([6]; cHex, 10 vol): ✓o (slurry)
- Solubility ([6]; iBuOH, 1 vol): ✓ (dissolved)
- Solubility ([6]; iPrOAc, 1 vol): x (not dissolved/too dry to slurry)
- Solubility ([6]; iPrOAc, 2 vol): x (not dissolved/too dry to slurry)
- Solubility ([6]; iPrOAc, 3 vol): x (not dissolved/too dry to slurry)
- Solubility ([6]; iPrOAc, 4 vol): x (not dissolved/too dry to slurry)
- Solubility ([6]; iPrOAc, 5 vol): x (not dissolved/too dry to slurry)
- Solubility ([6]; iPrOAc, 10 vol): ✓o (slurry)
- Solubility ([6]; iPrOH, 1 vol): ✓ (dissolved)
- Solubility ([6]; iPrOH/H2O (10%), 1 vol): ✓ (dissolved)

SMILES: CCC1OC(=O)C(C)C(=O)C(C)C(OC2OC(C)CC(N(C)C)C2O)C(C)(OCC=Cc2cnc3ccccc3c2)CC(C)C(=O)C(C)C2NC(=O)OC12C (stereo not drawn) [Free form]
- PXRD of Residues ([7]; PBS pH 7.4, 24 hr): freebase pattern 2
- PXRD of Residues ([7]; SGF media, 2 hr): amorphous
- Avg Sol'y ([3]; 2 hr (Table 32)): 25 mg/mL
- Sol'y ([3]; 2 hr (Table 32)): 24 mg/mL
- pH at 2 hrs ([3]; 2 hr (Table 32)): 7.6 and 7.5
- Avg Sol'y [8]: 2.0 mg/mL
- Sol'y [8]: 2.0 mg/mL and 1.9 mg/mL
- pH at 24 hrs [8]: 6.8
- Avg Sol'y ([5]; DI Water, 24 hr (Table 34)): 0.41 mg/mL
- Sol'y ([5]; DI Water, 24 hr (Table 34)): 0.47 mg/mL and 0.35 mg/mL
- pH at 24 hrs ([5]; DI Water, 24 hr (Table 34)): 8.1

From patent US11697667B2, “Salts and polymorphs of cethromycin for the treatment of disease” (AliquantumRx, Inc., priority 2019, dated 2023)
